Legend:
[1] = tested on: tumors derived from HS766-T human pancreatic cancer cells; experiment: HS766-T human pancreatic cancer tumor model in mice; format: in vivo, female NMRI nu/nu mice
Method: (§1) A combination of glufosfamide and gemcitabine was administered daily for 7 days to female NMRI nu/nu mice that were carrying tumors derived from HS766-T or As-PC-1 human pancreatic cancer cells. Mice were administered doses of vehicle control (0.9% sodium chloride solution, i.v.), gemcitabine (i.p.), glufosfamide (i.v.) or gemcitabine/glufosfamide combinations once daily for 7 consecutive days. A dose of 1.25 mg/kg was used as the standard dose for gemcitabine throughout the study.

[2] = tested on: tumors derived from As-PC-1 human pancreatic cancer cells; experiment: As-PC-1 human pancreatic cancer tumor model in mice; format: in vivo, female NMRI nu/nu mice; conditions: glufosfamide i.v., gemcitabine i.p., alone or in combination, once daily for 7 days
Method: as §1

[3] = tested on: tumors derived from type MiPaca2 human pancreatic cancer cells; experiment: MiPaca2 human pancreatic cancer tumor model in nude mice; format: in vivo
Method: A combination of glufosfamide and gemcitabine was administered to nude mice that were carrying tumors derived from type MiPaca2 human pancreatic cancer cells. Mice were administered doses of vehicle control, gemcitabine, glufosfamide, or gemcitabine/glufosfamide combinations as tabulated in Table 1 below (10 mice/group). Glufosfamide was administered i.v., daily for 14 days (Groups 1-4 and 7-12). Gemcitabine was administered at 300 mg/kg, i.p., once a week for three weeks (Groups 6 and 10-12). Gemcitabine was administered at 150 mg/kg, i.p., twice a week for three weeks (Groups 5 and 7-9).

[4] = tested on: pancreatic cancer cell lines; conditions: in vitro; cited from earlier work
[5] = tested on: advanced pancreatic cancer; conditions: patients with advanced pancreatic cancer; cited from earlier work

| SMILES | inhibitory effect on tumor progression ([1]; gemcitabine alone 1.25 mg/kg i.p. once daily for 7 days) | inhibitory effect on tumor growth [2] | onset of tumor growth compared with gemcitabine alone or vehicle control ([1]; glufosfamide 10 mg/kg i.v. once daily for 7 days) | reduction in tumor size ([3]; Group 3: glufosfamide 30 mg/kg i.v. daily for 14 days) | reduction in tumor size ([3]; Group 4: glufosfamide 100 mg/kg i.v. daily for 14 days) | activity against pancreatic cancer cell lines [4] | activity in patients [5] |
| --- | --- | --- | --- | --- | --- | --- | --- |
| Nc1ccn([C@@H]2O[C@H](CO)[C@@H](O)C2(F)F)c(=O)n1 [gemcitabine, 2′-deoxy-2′,2′-difluoro-cytidine] | only a marginal inhibitory effect | no apparent inhibitory effect on tumor growth | – | – | – | – | – |
| O=P(NCCCl)(NCCCl)O[C@@H]1O[C@H](CO)[C@@H](O)[C@H](O)[C@H]1O [glufosfamide, β-D-glucosyl-ifosfamide mustard] | – | no apparent inhibitory effect on tumor growth | dramatic delay in the onset of tumor growth | modest reduction in tumor size | modest reduction in tumor size | – | – |
| Nc1nc2[nH]cc(CCc3ccc(C(=O)N[C@@H](CCC(=O)O)C(=O)O)cc3)c2c(=O)[nH]1 [pemetrexed] | – | – | – | – | – | active | has shown activity |
